# Assay results reported in patent US8034899B2, “HIV fusion inhibitor peptides with improved biological properties” (priority 2006, dated 2011).
# Experiments:
# HIV-1 IIIB = conditions: cited from earlier work
# IIIB = assay: In vitro resistance selection in MT2 cells, cMAGI susceptibility, isolate IIIB; format: cell-based, HIV; conditions: starting isolate IIIB
# Source text: (§1) Assessment of biological properties included measurement of antiviral activity against HIV-1 strains. […] These assays score for reduction of infectious virus titer employing the indicator cell lines MAGI or the CCR5 expressing derivative cMAGI. Both cell lines exploit the ability of HIV-1 tat to transactivate the expression of a β-galactosidase reporter gene driven by the HIV-LTR. The β-gal reporter has been modified to localize in the nucleus and can be detected with the X-gal substrate as intense nuclear staining within a few days of infection. […] The number of infected cells for each control and peptide dilution was determined with the CCD-imager, and then the IC50 was calculated (expressed in μg/ml).
# (§2) MT2 cells were infected with virus isolates (IIIB, 030, 060 and 098) and cultured in increasing concentrations of SEQ ID NO:2 (enfuvirtide) or SEQ ID NO:9 to select for resistance. […] Cultures were monitored for cytopathic effect (CPE) using standard techniques and when maximal CPE was achieved, a small aliquot of virus was used for subsequent rounds of infection. […] Peptide-free virus stocks were characterized for gp41 genotypic changes by dideoxy sequencing chemistries and phenotypic susceptibility was determined using a cMAGI infectivity assay.
# 584.000030 = assay: In vitro resistance selection in MT2 cells, cMAGI susceptibility, isolate 584.000030; format: cell-based, HIV; conditions: starting isolate 584.000030
# Source text: as §1, §2
# 584.000060 = assay: In vitro resistance selection in MT2 cells, cMAGI susceptibility, isolate 584.000060; format: cell-based, HIV; conditions: starting isolate 584.000060
# Source text: as §1, §2
# 584.000098 = assay: In vitro resistance selection in MT2 cells, cMAGI susceptibility, isolate 584.000098; format: cell-based, HIV; conditions: starting isolate 584.000098
# Source text: as §1, §2
# [1] = tested on: virus isolates (IIIB, 030, 060 and 098); assay: In vitro resistance selection, geometric mean over the four isolates; format: cell-based, HIV; conditions: Geometric Mean of four isolates
# Source text: MT2 cells were infected with virus isolates (IIIB, 030, 060 and 098) and cultured in increasing concentrations of SEQ ID NO:2 (enfuvirtide) or SEQ ID NO:9 to select for resistance. The initial peptide concentration was approximately 2 times the IC50 of each peptide against the corresponding wild type isolate. Peptide concentrations were maintained by adding fresh peptide every 1-3 days. Cultures were monitored for cytopathic effect (CPE) using standard techniques and when maximal CPE was achieved, a small aliquot of virus was used for subsequent rounds of infection. Peptide concentrations were increased 2 to 4-fold depending on the length of time in culture when compared to the growth rate of wild type virus. During the course of selection, peptide-free virus stocks were also collected. Peptide-free virus stocks were characterized for gp41 genotypic changes by dideoxy sequencing chemistries and phenotypic susceptibility was determined using a cMAGI infectivity assay.
# [2] = 10 mg/ml in PBS, pH 7.3 to 7.5, 37° C., after several hours
# HIV-1LA1 = conditions: cited from earlier work
# [3] = no additional components; cited from earlier work
# [4] = Pharmacokinetics after intravenous dosing in cynomolgus monkeys; format: in vivo, cynomolgus monkeys (Macaca fasicularis); conditions: plasma
# Description: For determining pharmacokinetic properties, an HIV fusion inhibitor peptide or a base sequence from which an HIV fusion inhibitor peptide is derived was dosed intravenously in cynomolgus monkeys (Macaca fasicularis) (other animal models may be used for determining pharmacokinetic properties, as known in the art). At various times post-dose, blood samples were drawn and plasma isolated by centrifugation. Plasma samples were stored frozen until analysis by LC-MS (liquid chromatography/mass spectrometry) in the electrospray, positive-ion mode. An HIV fusion inhibitor or base sequence was eluted from a C18 or C8 HPLC column with a gradient of acetonitrile in a buffer of 10 mM ammonium acetate, pH 6.8. At the time of analysis, plasma samples were deproteinated with either two or three volumes of acetonitrile containing 0.5% formic acid. Duplicate calibration standards in cynomolgus plasma samples were prepared at the same time as the samples and analyzed before and after the samples containing either HIV fusion inhibitor peptide or base sequence. Pharmacokinetic properties were calculated from the plasma concentration-time data using either mono-exponential or bi-exponential mathematical models. Models were derived by non-linear least squares optimization. A 1/C^2 weighting of concentrations was used. […]
substance,measurement,setting,value
MTWMEWDREINNYTSLIHSLIEESQNQQEKNEQELL [T651],IC50 blocking infection of target cells,HIV-1 IIIB,5 ng/mL
enfuvirtide,Fold Change in IC50,IIIB,27 fold
same,Fold Change in IC50,584.000030,19 fold
same,Fold Change in IC50,584.000060,7 fold
same,Fold Change in IC50,584.000098,912 fold
same,Fold Change in IC50,[1],42 fold
same,stability of the solution (peptide remaining in solution),[2],minimal peptide detected in solution
same,EC50 blocking infection of target cells,HIV-1LA1,0.5 ng/mL
same,concentration achievable in an injectable aqueous solution without problems of solubility and stability,[3],≤ 100 mg/mL
"Ac-TTWEAWDRAIAEYAARIEALLRALQEQQEKNEAALREL-NH2 [SEQ ID NO:9, TTWEAWDRAIAEYAARIEALLRALQEQQEKNEAALREL]",Clearance,[4],<0.33 mL/min/kg
"Ac-TTWEAWDRAIAEYAARIEALLRAAQEQQEKLEAALREL-NH2 [SEQ ID NO:10, TTWEAWDRAIAEYAARIEALLRAAQEQQEKLEAALREL]",Clearance,[4],<0.33 mL/min/kg
